The subject of data set [1] is MCF7. The data set is described as follows: Cytotoxicity against human MCF7 cells assessed as decrease in cell viability after 5 days by celltiterGlo assay. Type of data set: functional, cell-based. To be noted: MCF7, 120 h.
The test system of data set [2] is MCF7. The data set is described as follows: Decrease in estrogen receptor alpha level in human MCF7 cells after 4 hrs by in-cell western assay. To be noted: MCF7, 4 h. Type of data set: functional, cell-based.
Data set [3] relates to MCF7. The data set is described as follows: Decrease in estrogen receptor alpha level in human MCF7 cells 2 to 10 uM after 4 hrs by in-cell western assay. Type of data set: functional. As to conditions: MCF7, 4 h.
Data set [4] concerns MCF7. The data set is described as follows: Decrease in estrogen receptor alpha level in human MCF7 cells after 4 hrs by in-cell western assay relative to fulvestrant. To be noted: MCF7, 4 h. The format is functional.
The nature of data set [5]: Fraction unbound in CD-1 mouse plasma by equilibrium dialysis. The format is ADME, cell-free.
Data set [6] in a line: AUC in CD-1 mouse at 10 mg/kg, po. The format is ADME, organism-based. To be noted: in vivo.
The subject of data set [7] is Rattus norvegicus. The data set is described as follows: Decrease in uterine wet weight of CD-IGS rat at 1 mg/kg, po qd followed 15 mins later administration of 0.1 mg/kg, po 17alpha-ethynylestradiol for 3 consecutive days. Type of data set: functional.
Data set [8] relates to MCF7. The data set is described as follows: Antitumor activity against human MCF7 cells xenografted in tamoxifen-resistant nu/nu mouse model implanted with 17beta-estradiol pellets assessed as tumor regression at 30 mg/kg qd for 4 weeks. The format is functional, organism-based.

pEC50, pIC50: −log10 of the molar value. The source made the active and inactive calls. No cut-off for these calls is given here. Some results are limits rather than exact numbers.

As to `CC/C(=C(/c1ccc(/C=C/C(=O)O)cc1)c1cnc2[nH]ncc2c1)c1ccccc1`, in data set [1], the pIC50 is 6.52. The pEC50 in data set [2] is 6.94. For the same compound, the maximal response (Emax) in data set [3] is 93%.
Take `CC/C(=C(/c1ccc(/C=C/C(=O)O)cc1)c1cc2cn[nH]c2cc1F)c1ccccc1`: the negative-log IC50 (pIC50) in data set [1] is 7.33. In data set [2], this compound showed a negative-log EC50 (pEC50) of 7.19. Further, in data set [3], the Emax was 96%.
`N#Cc1ccc(/C(=C(\c2ccc(/C=C/C(=O)O)cc2)c2ccc3[nH]nc(F)c3c2)C2CCC2)c(Cl)c1`: the Emax in data set [4] is 93%. Also, the negative-log IC50 (pIC50) in data set [1] is 9.15. Besides, the unbound share (fraction unbound) in data set [5] was determined as 0.006. The negative-log EC50 (pEC50) in data set [2] is 9.52. This compound gave an exposure (AUC) in data set [6] of 7800 ng·h/mL. In addition, the “inhibition (INH)” value in data set [7] is given as 85%.
`CC/C(=C(/c1ccc(/C=C/C(=O)O)cc1)c1ccc2[nH]nc(Cl)c2c1)c1ccccc1`: the pIC50 in data set [1] was 6.55. The compound also showed a negative-log EC50 (pEC50) in data set [2] of 6.99. The compound further had an Emax in data set [3] of 89%.
In the case of `O=C(O)/C=C/c1ccc(/C(=C(\c2ncc(C(F)(F)F)cc2Cl)C2CCC2)c2ccc3[nH]nc(F)c3c2)cc1`, the result in data set [8] was Active. In data set [4], this compound displayed an Emax of 94%. Moreover, the negative-log IC50 (pIC50) in data set [1] is 8.36. The compound also had a fraction unbound in data set [5] of 0.014. For the same compound, the pEC50 in data set [2] is 8.89. In data set [6], this compound had an AUC of 24300 ng·h/mL. Also, the “inhibition (INH)” value in data set [7] came to 77%.
`O=C(O)/C=C/c1ccc(/C(=C(\c2ccccc2)C2CCC2)c2ccc3[nH]nc(F)c3c2)cc1` showed an Emax in data set [4] of 90%. For the same compound, the pIC50 in data set [1] is 8.85. The same compound returned a free fraction (fraction unbound) in data set [5] of 0.003. Further, in data set [2], the negative-log EC50 (pEC50) was 9.40. In data set [6], the area under the curve (AUC) was determined as 14600 ng·h/mL. Besides, the “inhibition (INH)” value in data set [7] turned out to be 81%.
In data set [4], `O=C(O)/C=C/c1ccc(/C(=C(\c2ccccc2Cl)C2CCC2)c2ccc3[nH]nc(F)c3c2)cc1` registered an Emax of 90%. Also, the negative logarithm of the IC50 (pIC50) in data set [1] is 8.96. The free fraction (fraction unbound) in data set [5] was determined as 0.003. For the same compound, the negative-log EC50 (pEC50) in data set [2] was 9.40. The compound further showed an AUC in data set [6] of 11100 ng·h/mL. For the same compound, the “inhibition (INH)” value in data set [7] was determined as 82%.
Turning to `CC/C(=C(/c1ccc(/C=C/C(=O)O)cc1)c1cc2cn[nH]c2cc1Cl)c1ccccc1`, in data set [1], the pIC50 is 6.86. Also, in data set [2], the pEC50 is 7.27. In data set [3], the Emax came out at 87%.
Compound `CS(=O)(=O)c1cc(Cl)ccc1/C(=C(\c1ccc(/C=C/C(=O)O)cc1)c1ccc2[nH]nc(F)c2c1)C1CCC1` showed an Emax in data set [4] of 91%. Further, the pIC50 in data set [1] is 9.52. Besides, the free fraction (fraction unbound) in data set [5] was 0.035. Further, the pEC50 in data set [2] was 9.52. This compound came in with an exposure (AUC) in data set [6] of 200 ng·h/mL. For the same compound, in data set [7], the “inhibition (INH)” value was 94%.
For `N#Cc1cc(Cl)ccc1/C(=C(\c1ccc(/C=C/C(=O)O)cc1)c1ccc2[nH]nc(F)c2c1)C1CCC1`, in data set [4], the maximum response (Emax) was 94%. Also, in data set [1], the pIC50 is 9.15. The compound also yielded a free fraction (fraction unbound) in data set [5] of 0.007. For the same compound, the negative-log EC50 (pEC50) in data set [2] was 9.52. Besides, the AUC in data set [6] is 3700 ng·h/mL. The “inhibition (INH)” value in data set [7] was determined as 87%.
On to `N#Cc1cc(C(F)(F)F)ccc1/C(=C(\c1ccc(/C=C/C(=O)O)cc1)c1ccc2[nH]nc(F)c2c1)C1CCC1`, for which, in data set [8], the outcome was Active. The same compound showed an Emax in data set [4] of 94%. Besides, the negative-log IC50 (pIC50) in data set [1] was 8.92. In addition, the fraction unbound in data set [5] amounted to 0.014. In data set [2], this compound had a negative logarithm of the EC50 (pEC50) of 9.40. The AUC in data set [6] was determined as 14600 ng·h/mL. For the same compound, the “inhibition (INH)” value in data set [7] amounted to 75%.
As for `CC/C(=C(/c1ccc(/C=C/C(=O)O)cc1)c1cc2cn[nH]c2cc1C)c1ccccc1`, the negative logarithm of the IC50 (pIC50) in data set [1] is 6.33. Besides, the pEC50 in data set [2] was 6.57. The compound also came in with an Emax in data set [3] of 84%.
As for `CC/C(=C(/c1ccc(/C=C/C(=O)O)cc1)c1cc2cn[nH]c2cn1)c1ccccc1`, the pIC50 in data set [1] was 6.35. Also, in data set [2], the pEC50 was 6.42. In data set [3], this compound came in with an Emax of 88%.
`COc1ccc(/C(=C(\c2ccc(/C=C/C(=O)O)cc2)c2ccc3[nH]nc(F)c3c2)C2CCC2)c(C#N)c1` showed an Emax in data set [4] of 94%. The negative logarithm of the IC50 (pIC50) in data set [1] was 9.30. The compound also registered a free fraction (fraction unbound) in data set [5] of 0.004. The pEC50 in data set [2] was 9.52. Also, the exposure (AUC) in data set [6] is 2000 ng·h/mL. Further, the “inhibition (INH)” value in data set [7] is on record as 82%.
In the case of `CC/C(=C(/c1ccc(/C=C/C(=O)O)cc1)c1ccc2[nH]nc(C)c2c1)c1ccccc1`, the negative-log IC50 (pIC50) in data set [1] is < 6.00. In data set [2], this compound showed a pEC50 of 6.45. Further, the maximum response (Emax) in data set [3] was 86%.

These data come from ChEMBL document CHEMBL3632480, “Optimization of an indazole series of selective estrogen receptor degraders: Tumor regression in a tamoxifen-resistant breast cancer xenograft” (Bioorg Med Chem Lett, 2015).
